Test results as given in patent US8106055B2, “Substituted amide compounds” (Gruenenthal GmbH, priority 2007, dated 2012).

Tests used:
[1] = target: T1, human bradykinin 1 receptor (B1R) (Homo sapiens, UniProt P46663); assay: Functional investigation on the human bradykinin 1 receptor (B1R), Ca2+ FLIPR assay in CHO K1 hB1R cells; assay type: cell-based; conditions: test substance 10 μM, Ca2+ FLIPR, CHO K1 hB1R cells; for inhibition at 10 µM: CHO-K1, B1R antagonism human, read-out: B1R Ant. h [10 μM] % Inhibition; for B1R Ant. h [10 μM] % Inhibition: B1R antagonism human
T1 construct: expressed in transfected cells; host or cells: CHO K1 cells
T1 sequence (P46663 1-353): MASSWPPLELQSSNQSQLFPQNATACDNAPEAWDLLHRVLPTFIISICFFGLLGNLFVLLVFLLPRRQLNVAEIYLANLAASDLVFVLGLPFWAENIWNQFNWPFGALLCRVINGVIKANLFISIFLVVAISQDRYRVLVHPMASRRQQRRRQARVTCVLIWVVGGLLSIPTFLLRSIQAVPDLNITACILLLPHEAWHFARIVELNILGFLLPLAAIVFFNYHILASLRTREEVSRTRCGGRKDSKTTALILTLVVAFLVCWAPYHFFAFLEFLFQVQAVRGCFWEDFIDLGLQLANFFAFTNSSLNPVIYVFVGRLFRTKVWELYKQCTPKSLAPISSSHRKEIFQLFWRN
In short: (§1)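 Fluo-4 Ca2+ readout, peak fluorescence. Stable CHO K1 transfectants; compound pre-incubated 10-20 min, then EC80 agonist—Lys-Des-Arg9-BK for hB1R, Des-Arg9-BK for rB1R. % inhibition vs maximal inhibition; IC50 from multiple concentrations, duplicate/triplicate, ≥2 independent runs.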

[2] = target: T2, bradykinin 1 receptor (B1R) of the rat (Rattus norvegicus, UniProt P97583); assay: Functional investigation on the rat bradykinin 1 receptor (B1R), Ca2+ FLIPR assay in CHO K1 rB1R cells; assay type: cell-based; conditions: test substance 10 μM, Ca2+ FLIPR, CHO K1 rB1R cells; for inhibition at 10 µM: CHO-K1, B1R antagonism rat, read-out: B1R Ant. r [10 μM] % Inhibition; for B1R Ant. r [10 μM] % Inhibition: B1R antagonism rat
T2 construct: expressed in transfected cells; host or cells: CHO K1 cells
T2 sequence (P97583 1-337): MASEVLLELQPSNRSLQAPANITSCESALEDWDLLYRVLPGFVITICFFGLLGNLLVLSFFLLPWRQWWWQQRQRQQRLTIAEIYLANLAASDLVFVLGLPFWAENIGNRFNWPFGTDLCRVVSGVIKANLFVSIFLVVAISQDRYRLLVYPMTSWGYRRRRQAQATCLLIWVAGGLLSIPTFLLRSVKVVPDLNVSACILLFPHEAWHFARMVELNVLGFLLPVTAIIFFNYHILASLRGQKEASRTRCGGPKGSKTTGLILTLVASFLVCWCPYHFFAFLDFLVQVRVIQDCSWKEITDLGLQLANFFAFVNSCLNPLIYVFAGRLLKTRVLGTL
In short: as §1

SMILES	inhibition at 10 µM [1] [%]	inhibition at 10 µM [2] [%]	B1R Ant. h [10 μM] % Inhibition [1] [%]	B1R Ant. r [10 μM] % Inhibition [2] [%]
COc1cc(C)c(S(=O)(=O)N2CCCC(OCC(=O)NCCC3CCC(C(c4cccs4)N(C)C)CC3)C2)c(C)c1C (stereo not drawn) [Example 130, N-(2-(4-((dimethylamino)(thiophen-2-yl)methyl)cyclohexyl)ethyl)-2-(1-(4-methoxy-2,3,6-trimethylphenylsulfonyl)piperidin-3-yloxy)acetamide]	30	15		
COc1cc(C)c(S(=O)(=O)N(CCOCC(=O)NCCC2CCC(C(c3ccc(Cl)cc3)N(C)C)CC2)Cc2ccccc2)c(C)c1C (stereo not drawn) [Example 576]			−6	3
CN(C)C(CCc1ccccc1)C1CCC(CNC(=O)COCC2CCCN(S(=O)(=O)c3ccccc3)C2)CC1 (stereo not drawn) [Example 544]			22	38
COc1ccc(S(=O)(=O)N2CCCCC2CCOCC(=O)NC2CCC(C(c3cccs3)N(C)C)CC2)cc1 (stereo not drawn) [Example 6, N-(4-((dimethylamino)(thiophen-2-yl)methyl)cyclohexyl)-2-(2-(1-(4-methoxyphenylsulfonyl)piperidin-2-yl)ethoxy)acetamide]	24	34		
COc1cc(C)c(S(=O)(=O)N(CCOCC(=O)NCCC2CCC(C(c3ccc(F)cc3)N(C)C)CC2)Cc2ccccc2)c(C)c1C (stereo not drawn) [Example 554]			23	−11
CN(C)C(c1ccc(F)cc1)C1CCC(CCNC(=O)COCCN(C)S(=O)(=O)c2ccc(Cl)cc2Cl)CC1 (stereo not drawn) [Example 586]			95	76
COc1ccc(S(=O)(=O)N(C)CCOCC(=O)NCC2CCC(C(c3cccs3)N(C)C)CC2)cc1OC (stereo not drawn) [Example 127, 2-(2-(3,4-Dimethoxy-N-methylphenylsulfonamido)ethoxy)-N-((4-((dimethylamino)(thiophen-2-yl)methyl)cyclohexyl)methyl)acetamide]	-13	21		
CN(C)C(CCc1ccccc1)C1CCC(CNC(=O)COC2CCN(S(=O)(=O)c3cccc(C(F)(F)F)c3)C2)CC1 (stereo not drawn) [Example 552]			49	26
CN(C)C(CCc1ccccc1)C1CCC(CNC(=O)COCCN(C)S(=O)(=O)c2c(Cl)cccc2Cl)CC1 (stereo not drawn) [Example 476]			103	74
CN(C)C(CCc1ccccc1)C1CCC(CNC(=O)COCCN(C)S(=O)(=O)c2c(Cl)cccc2Cl)CC1 (stereo not drawn) [Example 580]			95	44
Cc1cc(C)c(S(=O)(=O)N(C)CCOCC(=O)NCCC2CCC(C(c3cccc(F)c3)N(C)C)CC2)c(C)c1 (stereo not drawn) [Example 587]			−14	16
COc1cc(C)c(S(=O)(=O)N2CCC(CCOCC(=O)NCCC3CCC(C(c4ccc(Cl)cc4)N(C)C)CC3)CC2)c(C)c1C (stereo not drawn) [Example 561]			−1	−12
CN(C)C(CCc1ccccc1)C1CCC(CNC(=O)COC2CCN(S(=O)(=O)c3ccc(Cl)cc3)C2)CC1 (stereo not drawn) [Example 557]			20	29
COc1cc(C)c(S(=O)(=O)N2CCC(OCC(=O)NCC3CCC(C(c4cccs4)N(C)C)CC3)CC2)c(C)c1C (stereo not drawn) [Example 104, N-((4-((dimethylamino)(thiophen-2-yl)methyl)cyclohexyl)methyl)-2-(1-(4-methoxy-2,3,6-trimethylphenylsulfonyl)piperidin-4-yloxy)acetamide]	24	-10		
COc1ccc(S(=O)(=O)N2CCCCC2COCC(=O)NCC2CCC(C(c3cccs3)N(C)C)CC2)cc1OC (stereo not drawn) [Example 133, 2-((1-(3,4-Dimethoxyphenylsulfonyl)piperidin-2-yl)methoxy)-N-((4-((dimethylamino)(thiophen-2-yl)methyl)cyclohexyl)methyl)acetamide]	-23	7		
COc1ccc(S(=O)(=O)N2Cc3ccccc3CC2COCC(=O)NCC2CCC(C(c3cccs3)N(C)C)CC2)cc1 (stereo not drawn) [Example 7, N-((4-((dimethylamino)(thiophen-2-yl)methyl)cyclohexyl)methyl)-2-((2-(4-methoxyphenylsulfonyl)-1,2,3,4-tetrahydroisoquinolin-3-yl)methoxy)acetamide]	47	27		
COc1ccc(S(=O)(=O)N(C)CCOCC(=O)NCCC2CCC(C(c3cccs3)N(C)C)CC2)cc1 (stereo not drawn) [Example 128, N-(2-(4-((dimethylamino)(thiophen-2-yl)methyl)cyclohexyl)ethyl)-2-(2-(4-methoxy-N-methylphenylsulfonamido)ethoxy)acetamide]	28	46		
COc1ccc(S(=O)(=O)N2CCCCC2COCC(=O)NCCC2CCC(C(c3cccs3)N(C)C)CC2)c(OC)c1 (stereo not drawn) [Example 107, 2-((1-(2,4-dimethoxyphenylsulfonyl)piperidin-2-yl)methoxy)-N-(2-(4-((dimethylamino)(thiophen-2-yl)methyl)cyclohexyl)ethyl)acetamide]	-4	49		
COc1ccc(S(=O)(=O)N(C)CCOCC(=O)NC2CCC(C(c3ccc(F)cc3)N(C)C)CC2)cc1 (stereo not drawn) [Example 549]			13	40
CN(C)C(c1ccccc1)C1CCC(CNC(=O)COC2CCN(S(=O)(=O)c3cccc(C(F)(F)F)c3)C2)CC1 (stereo not drawn) [Example 113, N-((4-((dimethylamino)(phenyl)methyl)cyclohexyl)methyl)-2-(1-(3-(trifluoromethyl)phenylsulfonyl)pyrrolidin-3-yloxy)acetamide]	-1	28		
COc1cc(C)c(S(=O)(=O)N(CCOCC(=O)NCC2CCC(C(c3ccc(Cl)cc3)N(C)C)CC2)Cc2ccccc2)c(C)c1C (stereo not drawn) [Example 560]			16	−5
CN(C)C(c1ccc(Cl)cc1)C1CCC(CNC(=O)COCCC2CCN(S(=O)(=O)c3ccccc3)CC2)CC1 (stereo not drawn) [Example 584]			−20	41
CN(C)C(c1cccc(F)c1)C1CCC(CCNC(=O)COCCN(C)S(=O)(=O)c2ccc(Cl)cc2Cl)CC1 (stereo not drawn) [Example 126, 2-(2-(2,4-dichloro-N-methylphenylsulfonamido)ethoxy)-N-(2-(4-((dimethylamino)(3-fluorophenyl)methyl)cyclohexyl)ethyl)acetamide]	103	59		
COc1ccc(S(=O)(=O)N2CCCCC2COCC(=O)NCC2CCC(C(CCc3ccccc3)N(C)C)CC2)cc1OC (stereo not drawn) [Example 570]			−18	4
CN(C)C(c1cccs1)C1CCC(CCNC(=O)COC2CCCN(S(=O)(=O)c3ccccc3)C2)CC1 (stereo not drawn) [Example 100, N-(2-(4-((dimethylamino)(thiophen-2-yl)methyl)cyclohexyl)ethyl)-2-(1-(phenylsulfonyl)piperidin-3-yloxy)acetamide]	-3	27		
CN(C)C(c1cccs1)C1CCC(CCNC(=O)COCC2CCCN(S(=O)(=O)c3ccccc3)C2)CC1 (stereo not drawn) [Example 115, N-(2-(4-((dimethylamino)(thiophen-2-yl)methyl)cyclohexyl)ethyl)-2-((1-(phenylsulfonyl)piperidin-3-yl)methoxy)acetamide]	10	21		
COc1ccc(S(=O)(=O)N2CCCCC2COCC(=O)NCC2CCC(C(c3ccc(F)cc3)N(C)C)CC2)cc1OC (single isomer, unassigned) [Example 534]			−18	−4
